Test [1] concerns IL-17A-induced G-CSF production in human normal keratinocyte (NHK). As to the kind of experiment: NHK assay: IL-17A-induced G-CSF production in normal human keratinocytes. In kind it is cell-based. The note with it: 24 h, IL-17A 5 ng/mL, G-CSF by HTRF, average if tested more than once. Here is the method:
IL-17A acts directly on keratinocytes through binding to dimeric receptor IL-17RA/RC and drives the production of a number of inflammatory mediators known to be elevated in psoriasis lesional tissue. IL-17A small molecule inhibitors that block the IL-17A to interact with IL-17R would inhibit the IL-17A signaling in its targeted cells such as keratinocytes. The compound functional activity is evaluated for its impact on IL-17A-induced G-CSF production in human normal keratinocyte (NHK).
Adult normal human keratinocytes are cultured in keratinocyte growth medium (Lonza) in a flask till reaching ˜90% confluence, then cells are transferred to a 384-well plate at density of 3000-4000 cell/well. Recombinant human IL-17A (Gibco PHC9174) is pre-incubated with titrated compound or DMSO for 1 h at rt then added to the cell culture plate. The final concentration of IL-17A is 5 ng/mL and DMSO is 0.2%, in the culture containing 5% FBS. Cells are cultured/treated for 24 h at 37° C. Supernatants are collected and G-CSF production is measured through HTRF technology using Human G-CSF Kit (CisBio). G-CSF concentration was extrapolated from the standard curve and IC50 is determined using GraphPad Prism. Cell viability is also evaluated using CellTiter-Glo kit (Promega) and effect of compound on cell viability is compared to DMSO control.
On the technique in general: Time-resolved FRET reads energy transfer from a long-lived donor to a nearby acceptor.

In test [2] the target is IL-17A(FLAG-Tagged): IL-17RA(His-Tagged) binding (Homo sapiens, UniProt Q16552, K93Q). The test can be described thus: IL-17A(FLAG-tagged):IL-17RA(His-tagged) binding disruption Eu-HTRF assay, Protocol 2. Particulars: FLAG-IL-17A 1 nM; average if tested more than once. An excerpt:
IL-17A(FLAG-Tagged): IL-17RA(His-Tagged) Binding Disruption Eu-HTRF Assay
An antibody directed against the FLAG tag of IL-17A (SEQ ID NO: 1) is labeled with the HTRF donor chromophore (Europium-cryptate). IL-17A is present as a dimer that is “locked into” this quaternary structure due to the formation of loop-spanning […] disulfide bridges. The construct of IL-17RA used in the assay excludes the […] portion of the receptor and is fused to a C-terminal 10×His tag (SEQ ID NO:2). An antibody directed against the His tag of the IL-17RA chimera is labeled with the HTRF acceptor chromophore (“D2”). The fluorescence-resonance energy transfer (FRET) depends on the vicinity of the donor chromophore to the acceptor, and interruption of the binding between the IL-17A and IL-17RA causes the reduction/loss of FRET. Therefore, this assay allows to evaluate the compound effect on the binding IL-17A and IL-17RA by monitoring the fluorescence intensity of donor vs acceptor. The assay was run using either Protocol 1 or Protocol 2 as described below.
Protocol 2. 40 nl of 2-fold serial diluted compound solution for total 22 dilution points is added into each well of a 1536-well, white, low-volume, non-binding plate (Greiner #782904), then 2 μl of FLAG tagged IL-17A at 2×final concentration (1 nM) in solution of PBS+0.01% Triton-X100 is added to each well. The assay plate is briefly centrifuged then incubated for 1 h at rt. A mixed solution is prepared containing 2×5 nM 10HIS×IL-17RA, 2×2.5 nM Eu-anti-FLAG (CISBIO), 2×5 nM D2-anti-HIS (CISBIO) in PBS+0.01% Triton-X100+200 mM Potassium Fluoride (Sigma 60238) and 2 μl of mix is added to each well of the assay plate. The plate is briefly centrifuged then incubated for 2 h at rt. The HTRF intensities at the wavelength of donor (615 nm) and acceptor (665 nm) are measured using BMG Pherastar. The ratio between intensities at two wavelengths is calculated and plotted against the compound concentration and the data is fitted to a one-site competition model to yield IC50 of the compound.

Sequence of UniProt Q16552 (Q16552 with tags, fused parts or gaps K93Q): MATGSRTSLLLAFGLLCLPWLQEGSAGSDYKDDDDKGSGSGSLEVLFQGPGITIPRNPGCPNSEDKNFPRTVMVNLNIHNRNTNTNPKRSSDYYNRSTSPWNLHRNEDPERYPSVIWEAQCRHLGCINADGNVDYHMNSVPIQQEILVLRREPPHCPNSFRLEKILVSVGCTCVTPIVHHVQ

`COC[C@H](c1cnn2cc([C@@H](NC(=O)c3nonc3C3CC3)[C@H](C)OC3(C(F)(F)F)CC3)nc2c1)N1CC(F)(F)CNC1=O` (relative stereo) [Example 91, 4-Cyclopropyl-N-((1R*,2S*)-1-(7-((S)-1-(5,5-difluoro-2-oxotetrahydropyrimidin-1(2H)-yl)-2-methoxyethyl)imidazo[1,2-b]pyridazin-2-yl)-2-(1-(trifluoromethyl)cyclopropoxy)propyl)-1,2,5-oxadiazole-3-carboxamide]: the half-inhibitory concentration (IC50) in test [1] (Homo sapiens, Keratinocyte) is greater than 100 nM; in test [2], 50 to 100 nM.
`COc1nonc1C(=O)N[C@@H](CCC(C)(C)C(F)(F)F)c1cn2ncc(CN3C[C@@H]4[C@H](CNC3=O)C4(F)F)cc2n1` (relative stereo) [Example 116, N—((S)-1-(7-(((1S*,7R*)-8,8-Difluoro-4-oxo-3,5-diazabicyclo[5.1.0]octan-3-yl)methyl)imidazo[1,2-b]pyridazin-2-yl)-5,5,5-trifluoro-4,4-dimethylpentyl)-4-methoxy-1,2,5-oxadiazole-3-carboxamide]: the IC50 in test [1] (Homo sapiens, Keratinocyte) was greater than 100 nM; in test [2], 50 to 100 nM.
In the case of `COc1nonc1C(=O)N[C@@H](CCC(C)(C)C(F)(F)F)c1cn2ncc(CN3C[C@H]4[C@@H](CNC3=O)C4(F)F)cc2n1` (relative stereo) [Example 117, N—((S)-1-(7-(((1R*,7S*)-8,8-Difluoro-4-oxo-3,5-diazabicyclo[5.1.0]octan-3-yl)methyl)imidazo[1,2-b]pyridazin-2-yl)-5,5,5-trifluoro-4,4-dimethylpentyl)-4-methoxy-1,2,5-oxadiazole-3-carboxamide], the IC50 in test [1] (Homo sapiens, Keratinocyte) is less than 50 nM; in test [2], less than 50 nM.
On to `CC(C)(CC[C@H](NC(=O)c1nonc1C1CC1)c1cn2ncc(CN3C[C@@H]4[C@H](CNC3=O)C4(F)F)cc2n1)C(F)(F)F` (relative stereo) [Example 118, 4-Cyclopropyl-N—((S)-1-(7-(((1S*,7R*)-8,8-difluoro-4-oxo-3,5-diazabicyclo[5.1.0]octan-3-yl)methyl)imidazo[1,2-b]pyridazin-2-yl)-5,5,5-trifluoro-4,4-dimethylpentyl)-1,2,5-oxadiazole-3-carboxamide], for which the IC50 in test [1] (Homo sapiens, Keratinocyte) is greater than 100 nM; in test [2], less than 50 nM.
In the same order, the values of `CC(C)(CC[C@H](NC(=O)c1nonc1C1CC1)c1cn2ncc(CN3C[C@H]4[C@@H](CNC3=O)C4(F)F)cc2n1)C(F)(F)F` (relative stereo) [Example 119, 4-Cyclopropyl-N—((S)-1-(7-(((1R*,7S*)-8,8-difluoro-4-oxo-3,5-diazabicyclo[5.1.0]octan-3-yl)methyl)imidazo[1,2-b]pyridazin-2-yl)-5,5,5-trifluoro-4,4-dimethylpentyl)-1,2,5-oxadiazole-3-carboxamide] are less than 50 nM and less than 50 nM.
Take `Cc1nonc1C(=O)N[C@@H](CCC(C)(C)C(F)(F)F)c1cn2ncc(CN3C[C@@H]4[C@H](CNC3=O)C4(F)F)cc2n1` (relative stereo) [Example 120, N—((S)-1-(7-(((1S*,7R*)-8,8-Difluoro-4-oxo-3,5-diazabicyclo[5.1.0]octan-3-yl)methyl)imidazo[1,2-b]pyridazin-2-yl)-5,5,5-trifluoro-4,4-dimethylpentyl)-4-methyl-1,2,5-oxadiazole-3-carboxamide]: the IC50 in test [1] (Homo sapiens, Keratinocyte) was greater than 100 nM; in test [2], greater than 100 nM.
`Cc1nonc1C(=O)N[C@@H](CCC(C)(C)C(F)(F)F)c1cn2ncc(CN3C[C@H]4[C@@H](CNC3=O)C4(F)F)cc2n1` (relative stereo) [Example 121, N—((S)-1-(7-(((1R*,7S*)-8,8-Difluoro-4-oxo-3,5-diazabicyclo[5.1.0]octan-3-yl)methyl)imidazo[1,2-b]pyridazin-2-yl)-5,5,5-trifluoro-4,4-dimethylpentyl)-4-methyl-1,2,5-oxadiazole-3-carboxamide]: the IC50 was less than 50 nM in test [1] (Homo sapiens, Keratinocyte) and less than 50 nM in test [2].
Take `COC[C@H](c1cnn2cc([C@H](CCC(C)(C)C(C)(F)F)NC(=O)c3nonc3C)nc2c1)N1CC(F)(F)CNC1=O` (relative stereo) [Example 133, N—((S*)-1-(7-((S)-1-(5,5-Difluoro-2-oxotetrahydropyrimidin-1(2H)-yl)-2-methoxyethyl)imidazo[1,2-b]pyridazin-2-yl)-5,5-difluoro-4,4-dimethylhexyl)-4-methyl-1,2,5-oxadiazole-3-carboxamide]: the IC50 was less than 50 nM in test [1] (Homo sapiens, Keratinocyte) and less than 50 nM in test [2].
For `[2H]C1([2H])NC(=O)N([C@H](COC2CC2)c2cnn3cc([C@@H](NC(=O)c4nonc4C)C4CCC(F)(F)CC4)nc3c2)C([2H])([2H])C1(F)F` (single isomer, unassigned) [Example 40], the IC50 in test [1] (Homo sapiens, Keratinocyte) was less than 50 nM; in test [2], less than 50 nM.
On to `COC[C@H](c1cnn2cc(C(CCC(C)(C)C(F)(F)F)NC(=O)c3nonc3C)nc2c1)N1CC(F)(F)CNC1=O` (single isomer, unassigned) [Example 45, N—((S*)-1-(7-((S)-1-(5,5-Difluoro-2-oxotetrahydropyrimidin-1(2H)-yl)-2-methoxyethyl)imidazo [1,2-b]pyridazin-2-yl)-5,5,5-trifluoro-4,4-dimethylpentyl)-4-methyl-1,2,5-oxadiazole-3-carboxamide], for which the IC50 in test [1] (Homo sapiens, Keratinocyte) is less than 50 nM; in test [2], less than 50 nM.
On to `Cc1nonc1C(=O)N[C@H](c1cn2ncc(C(C3CCOCC3)N3CC(F)(F)CNC3=O)cc2n1)C1CCC(F)(F)CC1` (single isomer, unassigned) [Example 59, N—((S)-(7-((R*)-(5,5-Difluoro-2-oxotetrahydropyrimidin-1(2H)-yl)(tetrahydro-2H-pyran-4-yl)methyl)imidazo[1,2-b]pyridazin-2-yl)(4,4-difluorocyclohexyl)methyl)-4-methyl-1,2,5-oxadiazole-3-carboxamide], for which the IC50 in test [1] (Homo sapiens, Keratinocyte) was less than 50 nM; in test [2], less than 50 nM.
Take `COC[C@H](c1cnn2cc(C(CC(C)(C)C(C)(F)F)NC(=O)c3nonc3C3CC3)nc2c1)N1CC(F)(F)CNC1=O` (single isomer, unassigned) [Example 68, 4-Cyclopropyl-N—((S*)-1-(7-((S)-1-(5,5-difluoro-2-oxotetrahydropyrimidin-1(2H)-yl)-2-methoxyethyl)imidazo[1,2-b]pyridazin-2-yl)-4,4-difluoro-3,3-dimethylpentyl)-1,2,5-oxadiazole-3-carboxamide]: the IC50 in test [1] (Homo sapiens, Keratinocyte) was less than 50 nM; in test [2] it was less than 50 nM.
In the case of `COC[C@H](c1cnn2cc(C(CCC3(C(F)(F)F)CC3)NC(=O)c3nonc3C)nc2c1)N1CC(F)(F)CNC1=O` (single isomer, unassigned) [Example 125, N—((R*)-1-(7-((S)-1-(5,5-Difluoro-2-oxotetrahydropyrimidin-1(2H)-yl)-2-methoxyethyl)imidazo[1,2-b]pyridazin-2-yl)-3-(1-(trifluoromethyl)cyclopropyl)propyl)-4-methyl-1,2,5-oxadiazole-3-carboxamide], the concentration for half-maximal inhibition (IC50) in test [1] (Homo sapiens, Keratinocyte) is greater than 100 nM; in test [2] it was greater than 100 nM.
Take `COC[C@H](c1cnn2cc(C(CCC3(C(F)(F)F)CC3)NC(=O)c3nonc3C)nc2c1)N1CC(F)(F)CNC1=O` (single isomer, unassigned) [Example 126, N—((S*)-1-(7-((S)-1-(5,5-Difluoro-2-oxotetrahydropyrimidin-1(2H)-yl)-2-methoxyethyl)imidazo[1,2-b]pyridazin-2-yl)-3-(1-(trifluoromethyl)cyclopropyl)propyl)-4-methyl-1,2,5-oxadiazole-3-carboxamide]: the IC50 in test [1] and in test [2] was less than 50 nM throughout.

What is called IC50 is the concentration at which inhibition is half-maximal. Low values mean greater potency, high ones weaker potency.

The values above are taken from patent US12173007B2, “Imidazopyridazine IL-17 inhibitor compounds” (Janssen Pharmaceutica NV, priority 2021, dated 2024).
